Data taken from paper PMC11111408, “Concurrent inhibition of oncogenic and wild-type RAS-GTP for cancer therapy” (Nature, 2024).
Several values for one entry are separate records, joined by “and”; a condition that tells them apart may be missing. Equal values may be shown once.

What was measured:
WT KRAS = target: T1, WT KRAS (Homo sapiens, UniProt P01116+P62937); assay: KRAS–RALGDS RID binding inhibition in vitro; type: biochemical; design: TR-FRET of recombinant KRAS and RALGDS RID: scale not given here; conditions: for TR-FRET of recombinant KRAS and RALGDS RID: single replicates
T1 construct: His6-TEV (N); made in house; host or cells: E. coli BL21(DE3)

[1] = tested on: antigen specific CD8+ T cells, C57BL/6J mice; assay: OVA peptide vaccination, CD8+ T cell response; type: in vivo, mouse; conditions: individual mice; for IFNγ production by ELISpot: 25 mg/kg PO daily, 25 mg/kg
Description: Mice were euthanized on day 15 after treatment start, and spleens were harvested and assessed for frequency of antigen specific (H-2Kb [sequence] tetramer positive) CD8 + T cells by flow cytometry (a) and for IFNγ production by ELISpot.
Briefly, bone marrow was isolated from the femurs and tibias of 6-8 week-old female C57BL/6J mice (Jackson Laboratory). Bone marrow cells were plated in complete RPMI containing 10% FBS, 1 mM Sodium Pyruvate, mM HEPES, 1x MEM Non-Essential Amino Acids, and supplemented with GMCSF (Peprotech) at 20 ng/ml. On day 10, 0.5 ng/ml IL-4 (Peptotech) was added to the media. 50% of the media was replaced with fresh GMCSF-containing media on culture days 6, 8, and 10. […] 100% of the media was replaced on culture days 12 and 13. To activate BMDCs prior to vaccination, 0.5 μg/ml CpG (Invivogen, tlrl-1668) and 1 μg/ml LPS (Sigma Aldrich, L5418) were added to the media on day 13. On culture day 14, activated BMDCs were pulsed with OVA peptide ([sequence]) (1 μg/ml, Anaspec, AS-60193-1) for 2 hours and washed 3 times in serum-free RPMI. 1x10^6 peptide-pulsed, activated BMDCS were injected intravenously into each mouse on day 0 and day 8. […] After 15 days of treatment, mice were euthanized and spleens were harvested. Spleens were mechanically dissociated into single-cell suspension, incubated at 4°C for 20 minutes with Mouse Fc blocking agent (anti-CD16/32, Biolegend) and Live/Dead blue Viability Dye (ThermoFisher), and 20 minutes with cell staining antibody mix. […] Murine IFN𝛄 ELISpot (ImmunoSpot, CTL) was performed according to manufacturer’s protocol. Briefly, spleens were mechanically dissociated into single-cell suspension. […] Plates were incubated at 37°C, 5% CO2 for 24 hours before staining and analysis on the CTL ImmunoSpot S6 Universal M2 Analyzer.

NRAS^Q61L = NRAS^Q61L (Homo sapiens, UniProt P01111+P62937, Q61L); assay: RAS binding affinity of compound-bound CYPA (Kd2), SPR; conditions: steady state SPR, (95% CI)
KRAS–RALGDS [2] = target: T2, KRAS–RALGDS (Homo sapiens, UniProt P01116, G12D); assay: Cellular nano-BRET, full length RALGDS binding to KRAS G12C, G12D, G12V; type: cell-based; conditions: KRAS G12D, in the presence of CYPA, single replicates
T2 construct: expressed in transfected cells; host or cells: U2OS

KRAS–RALGDS [3] = target: T3, KRAS–RALGDS (Homo sapiens, UniProt P01116, G12V); assay: as above; type: cell-based; conditions: KRAS G12V, in the presence of CYPA, single replicates
T3 construct: expressed in transfected cells; host or cells: U2OS

KRAS–RALGDS [4] = target: T4, KRAS–RALGDS (Homo sapiens, UniProt P01116, G12C); assay: as above; type: cell-based; conditions: KRAS G12C, in the presence of CYPA, single replicates
T4 construct: expressed in transfected cells; host or cells: U2OS

KRAS^G12V = KRAS^G12V (Homo sapiens, UniProt P01116+P62937, G12V); assay: KRAS–RALGDS RID binding inhibition in vitro; type: biochemical; design: His6-TEV (N); made in house; host or cells: BL21(DE3) Escherichia coli; TR-FRET of recombinant KRAS and RALGDS RID: scale not given here; conditions: for TR-FRET of recombinant KRAS and RALGDS RID: KRAS G12V, single replicates
[5] = Body weight and tolerability of tumour bearing mice; conditions: for % Body Weight Change: 10 mg/kg po qd, 10 mg/kg
Description: All datapoints shown, n = 3 per dose and timepoint.
Female BALB/c nude mice, NOD SCID and NSG mice 6-8 weeks old from Beijing Vital River/VR Laboratory Animal Co., LTD, Beijing AniKeeper Biotech Co., Ltd., Shanghai Sino-British SIPPR/BK Laboratory Animal Co., LTD and The Jackson Laboratory were used. Animals were housed in polycarbonate cages, in an environmentally monitored, well ventilated room maintained at a constant temperature of 20-26°C and relative humidity of 40-80%. Fluorescent lighting provided illumination approximately 12 hours per day. Each mouse was inoculated at the right flank with tumor cells (2x10^6-1x10^7) in 100-200 µL of media/PBS supplemented with Matrigel (1:1). Treatments were started when the average tumor size reached 100-250 mm^3. […] Mice on studies were weighed and tumor measurements collected twice weekly. […] For efficacy study, Animals were assigned to study groups using stratified randomization based upon their tumor volumes (n=3-10/group). […] Animals were treated for 28 days (or up to 110 for selected models) or an earlier time if tumor burden reached humane endpoint. […] Body weights were collected twice a week during the study.

CCn1c(-c2cc(N3CCN(C4CC4)CC3)cnc2[C@H](C)OC)c2c3cc(ccc31)-c1csc(n1)C[C@H](NC(=O)[C@H]1[C@@H]3COC[C@@H]31)C(=O)N1CCC[C@H](N1)C(=O)OCC(C)(C)C2 [RMC-7977]
TR-FRET of recombinant KRAS and RALGDS RID (WT KRAS; RMC-7977 0.005 nM with CYPA): 1.077 and 1.051 and 1.011 and 0.9577 | TR-FRET of recombinant KRAS and RALGDS RID (WT KRAS; RMC-7977 0.046 nM with CYPA): 0.9855 and 0.9772 and 0.9315 and 0.827 | TR-FRET of recombinant KRAS and RALGDS RID (WT KRAS; RMC-7977 0.412 nM with CYPA): 0.9473 and 0.8792 and 0.8105 and 0.8965 | TR-FRET of recombinant KRAS and RALGDS RID (WT KRAS; RMC-7977 1.235 nM with CYPA): 0.966 and 0.9012 and 0.7562 and 0.8255 | TR-FRET of recombinant KRAS and RALGDS RID (WT KRAS; RMC-7977 3.704 nM with CYPA): 0.755 and 0.7635 and 0.8193 and 0.729 | TR-FRET of recombinant KRAS and RALGDS RID (WT KRAS; RMC-7977 11.111 nM with CYPA): 0.531 and 0.5523 and 0.5275 and 0.6425 | TR-FRET of recombinant KRAS and RALGDS RID (WT KRAS; RMC-7977 33.333 nM with CYPA): 0.3432 and 0.2545 and 0.2295 and 0.2898 | TR-FRET of recombinant KRAS and RALGDS RID (WT KRAS; RMC-7977 100.000 nM with CYPA): 0.19 and 0.03225 and 0.05775 and 0.042 | IC50 (WT KRAS; recombinant, with CYPA): 14 nM | % Antigen specific CD8 T cells ([1]; spleen, day 15, 25 mg/kg PO daily, OVA peptide vaccinated C57BL/6J mice): 1.46% and 1.22% and 0.72% | IFNγ production by ELISpot ([1]; splenocytes stimulated with SIINFEKL): 1885 and 890 and 922 | IFNγ production by ELISpot ([1]; splenocytes, no stim): 35 and 80 and 53 | Kd (NRAS^Q61L): 240 nM | Cellular nano-BRET of RALGDS (full-length) binding to KRAS (KRAS–RALGDS [2]; RMC-7977 12.346 nM): 21.965 and 22.2278 and 22.7225 and 21.1836 and 19.9465 and 19.3916 | Cellular nano-BRET of RALGDS (full-length) binding to KRAS (KRAS–RALGDS [2]; RMC-7977 37.037 nM): 15.9727 and 15.3384 and 16.4816 and 15.5961 and 16.3731 and 14.4955 | Cellular nano-BRET of RALGDS (full-length) binding to KRAS (KRAS–RALGDS [2]; RMC-7977 111.111 nM): 13.7998 and 12.0846 and 13.3529 and 13.1019 and 13.0482 and 11.2251 | Cellular nano-BRET of RALGDS (full-length) binding to KRAS (KRAS–RALGDS [2]; RMC-7977 333.333 nM): 11.2999 and 11.1999 and 10.8448 and 10.0467 and 10.686 and 10.4797 | Cellular nano-BRET of RALGDS (full-length) binding to KRAS (KRAS–RALGDS [2]; RMC-7977 1000.000 nM): 10.2193 and 10.47 and 10.4459 and 10.0036 and 10.1066 and 10.1313 | Cellular nano-BRET of RALGDS (full-length) binding to KRAS (KRAS–RALGDS [3]; RMC-7977 4.115 nM): 30.1314 and 27.6913 and 29.7303 and 27.1744 | Cellular nano-BRET of RALGDS (full-length) binding to KRAS (KRAS–RALGDS [3]; RMC-7977 12.346 nM): 22.418 and 20.7842 and 21.8208 and 20.4059 and 22.2654 and 20.6652 | Cellular nano-BRET of RALGDS (full-length) binding to KRAS (KRAS–RALGDS [3]; RMC-7977 37.037 nM): 15.6693 and 15.6351 and 15.326 and 16.1305 and 15.8324 and 15.892 | Cellular nano-BRET of RALGDS (full-length) binding to KRAS (KRAS–RALGDS [3]; RMC-7977 111.111 nM): 12.652 and 12.1384 and 12.5044 and 12.7423 and 12.6511 and 12.657 | Cellular nano-BRET of RALGDS (full-length) binding to KRAS (KRAS–RALGDS [3]; RMC-7977 333.333 nM): 11.4911 and 11.1105 and 10.9221 and 11.2754 and 11.3448 and 11.4972 | Cellular nano-BRET of RALGDS (full-length) binding to KRAS (KRAS–RALGDS [3]; RMC-7977 1000.000 nM): 11.0787 and 10.8666 and 11.0137 and 11.1587 and 10.8841 and 10.9076 | Cellular nano-BRET of RALGDS (full-length) binding to KRAS (KRAS–RALGDS [4]; RMC-7977 4.115 nM): 18.1963 and 16.034 and 17.4595 and 15.2439 and 16.9748 and 14.2583 | Cellular nano-BRET of RALGDS (full-length) binding to KRAS (KRAS–RALGDS [4]; RMC-7977 12.346 nM): 13.0313 and 11.9807 and 11.9885 and 11.6119 and 11.6125 and 11.8549 | Cellular nano-BRET of RALGDS (full-length) binding to KRAS (KRAS–RALGDS [4]; RMC-7977 37.037 nM): 11.0793 and 10.028 and 11.2271 and 10.7778 and 11.2352 and 10.211 | Cellular nano-BRET of RALGDS (full-length) binding to KRAS (KRAS–RALGDS [4]; RMC-7977 111.111 nM): 10.2935 and 10.375 and 9.345 and 10.0632 and 10.0122 and 10.2781 | Cellular nano-BRET of RALGDS (full-length) binding to KRAS (KRAS–RALGDS [4]; RMC-7977 333.333 nM): 10.1394 and 10.5924 and 9.785 and 10.0763 and 9.658 and 9.979 | Cellular nano-BRET of RALGDS (full-length) binding to KRAS (KRAS–RALGDS [4]; RMC-7977 1000.000 nM): 10.8628 and 9.92 and 10.139 and 10.0712 and 10.3509 and 9.953 | TR-FRET of recombinant KRAS and RALGDS RID (KRAS^G12V; RMC-7977 0.005 nM with CYPA): 1.0295 and 1.03 and 1.0995 and 1.02 | TR-FRET of recombinant KRAS and RALGDS RID (KRAS^G12V; RMC-7977 0.046 nM with CYPA): 1.033 and 0.9862 and 0.9822 and 1.02 | TR-FRET of recombinant KRAS and RALGDS RID (KRAS^G12V; RMC-7977 0.412 nM with CYPA): 0.9113 and 1.003 and 0.948 and 0.8985 | TR-FRET of recombinant KRAS and RALGDS RID (KRAS^G12V; RMC-7977 1.235 nM with CYPA): 0.868 and 0.861 and 0.9113 and 0.9277 | TR-FRET of recombinant KRAS and RALGDS RID (KRAS^G12V; RMC-7977 3.704 nM with CYPA): 0.6665 and 0.6727 and 0.7087 and 0.775 | TR-FRET of recombinant KRAS and RALGDS RID (KRAS^G12V; RMC-7977 11.111 nM with CYPA): 0.4672 and 0.5503 and 0.4273 and 0.4677 | TR-FRET of recombinant KRAS and RALGDS RID (KRAS^G12V; RMC-7977 33.333 nM with CYPA): 0.2172 and 0.237 and 0.1963 and 0.1593 | TR-FRET of recombinant KRAS and RALGDS RID (KRAS^G12V; RMC-7977 100.000 nM with CYPA): 0.031 and -0.01375 and 0.0395 and 0.0045 | IC50 (KRAS^G12V; KRAS^G12V, recombinant, with CYPA): 8 nM | % Body Weight Change ([5]; NCI-H441 tumor bearing BALB/c nude mice, day 4, individual animals): -4.55% and -0.24% and 1.44% and 1.89% and -1.08% and 0.22% and -2.41% and 1.83% | % Body Weight Change ([5]; NCI-H441 tumor bearing BALB/c nude mice, day 7, individual animals): -9.19% and -1.70% and 0.68% and 1.75% and -4.40% and -1.88% and -16.62% and -2.26% | % Body Weight Change ([5]; NCI-H441 tumor bearing BALB/c nude mice, day 11, individual animals): -4.55% and -4.86% and 0.27% and 1.46% and -4.26% and -1.16% and -0.43% and 0.65% | % Body Weight Change ([5]; NCI-H441 tumor bearing BALB/c nude mice, day 14, individual animals): -3.50% and -2.87% and 1.04% and 3.87% and -4.31% and -0.18% and -2.76% and -1.00% | % Body Weight Change ([5]; NCI-H441 tumor bearing BALB/c nude mice, day 18, individual animals): -0.17% and 7.78% and -13.00% and 19.16% and -2.62% and 1.70% and -3.06% and 3.09% | % Body Weight Change ([5]; NCI-H441 tumor bearing BALB/c nude mice, day 21, individual animals): -1.14% and -0.19% and 3.16% and 1.56% and -3.51% and 3.31% and -2.50% and 1.35% | % Body Weight Change ([5]; NCI-H441 tumor bearing BALB/c nude mice, day 25, individual animals): -5.65% and 1.02% and 4.20% and 4.72% and -0.28% and 1.43% and -6.63% and 1.91% | % Body Weight Change ([5]; NCI-H441 tumor bearing BALB/c nude mice, day 28, individual animals): -1.90% and 1.90% and 4.11% and 4.06% and 0.28% and 2.82% and -8.01% and 4.78% | % Body Weight Change ([5]; PDAC G12D tumor bearing BALB/c nude mice, day 3, individual animals): -4.17% | % Body Weight Change ([5]; PDAC G12D tumor bearing BALB/c nude mice, day 7, individual animals): -4.17% | % Body Weight Change ([5]; PDAC G12D tumor bearing BALB/c nude mice, day 14, individual animals): -8.33% | % Body Weight Change ([5]; PDAC G12D tumor bearing BALB/c nude mice, day 17, individual animals): -8.33% | % Body Weight Change ([5]; PDAC G12D tumor bearing BALB/c nude mice, day 21, individual animals): -8.00% and 0.00% | % Body Weight Change ([5]; PDAC G12D tumor bearing BALB/c nude mice, day 24, individual animals): -8.00% | % Body Weight Change ([5]; PDAC G12D tumor bearing BALB/c nude mice, day 28, individual animals): 4.00% | effect on body weights ([5]; all 15 KRAS^G12X xenograft models, 10 mg kg^−1): minimal effect on body weights | tolerability ([5]; repeated daily administration at 10 mg kg^−1, NCI-H441 model): well tolerated
